Experimental findings from patent publication US20170008921A1, “C-3 NOVEL TRITERPENONE WITH C-28 REVERSE AMIDE DERIVATIVES AS HIV INHIBITORS” (HETERO RESEARCH FOUNDATION, priority 2015, published 2017) are described below.

Data set [1] is described as follows: Cyto-toxicity (MTT assay). The format is cell-based. Background: Tetrazolium dyes change colour on reduction, which living cells bring about.
The nature of data set [2]: Single dose oral pharmacokinetic study. The format is in vivo. The settings on record: mouse, Mice oral PK @30 mg/kg, plasma, vehicle 10% Solutol+20% PEG; for AUC(0-t): read-out: AUC0-t; for Cmax: read-out: Cmax. The method in brief: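 Rats or mice dosed orally at 30 mg/kg in 10% Solutol+20% PEG. Acetonitrile precipitation, then LC-MS/MS quantification for PK parameters.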

By viability is commonly meant a read-out of living cells in per cent, often relative to untreated cells. A higher viability goes with better survival. By Cmax is commonly meant the highest concentration seen after dosing. Regarding `Cc1ccc(C(=O)NC2(C(=O)N[C@@]34CC[C@]5(C)[C@H](CC[C@@H]6[C@@]7(C)CC[C@H](OC(=O)[C@H]8C[C@@H](C(=O)O)C8(C)C)C(C)(C)[C@@H]7CC[C@]65C)C3=C(C(C)C)C(=O)C4)CCCCC2)cc1` [Example 50, (1R,3S)-3-((((3aR,5aR,5bR,7aR,9S,11aR,11bR,13aS)-1-isopropyl-5a,5b,8,8,11a-pentamethyl-3a-(1-(4-methylbenzamido)cyclohexane-1-carboxamido)-2-oxo-3,3a,4,5,5a,5b,6,7,7a,8,9,10,11,11a,11b,12,13,13a-octadecahydro-2H-cyclopenta[a]chrysen 9-yl)oxy)carbonyl)-2,2-dimethylcyclobutane-1-carboxylic acid], in data set [1], the viability at 4 days, 0.01 µM came to 21%; the viability at 4 days, 0.1 µM amounted to 0%; the viability at 4 days, 1 µM was 0%. Besides, in data set [2], the AUC(0-t) is 454 µg·h/mL and the Cmax is 23300 ng/mL.

In data set [1], `CC(C)C1=C2[C@H]3CC[C@@H]4[C@@]5(C)CC[C@H](OC(=O)[C@H]6C[C@@H](C(=O)O)C6(C)C)C(C)(C)[C@@H]5CC[C@@]4(C)[C@]3(C)CC[C@@]2(NC(=O)C(C)(C)NC(=O)c2ccc(S(C)(=O)=O)cc2)CC1=O` [Example 51, (1R,3S)-3-((((3aR,5aR,5bR,7aR,9S,11aR,11bR,13aS)-1-isopropyl-5a,5b,8,8,11a-pentamethyl-3a-(2-methyl-2-(4-(methylsulfonyl)benzamido)propanamido)-2-oxo-3,3a,4,5,5a,5b,6,7,7a,8,9,10,11,11a,11b,12,13,13a-octadecahydro-2H-cyclopenta[a]chrysen-9-yl)oxy)carbonyl)-2,2-dimethylcyclobutane-1-carboxylic acid] showed a viability at 4 days, 0.001 µM of 86%; a viability at 4 days, 0.003 µM of 85%; a viability at 4 days, 0.01 µM of 37%. Moreover, in data set [2], the AUC(0-t) came to 277 µg·h/mL and the Cmax amounted to 32300 ng/mL.

In data set [1], `CC(C)C1=C2[C@H]3CC[C@@H]4[C@@]5(C)CC[C@H](OC(=O)[C@H]6C[C@@H](C(=O)O)C6(C)C)C(C)(C)[C@@H]5CC[C@@]4(C)[C@]3(C)CC[C@@]2(NC(=O)C(C)(C)NC(=O)CN(C)C)CC1=O` [Example 59, (1R,3S)-3-((((3aR,5aR,5bR,7aR,9S,11aR,11bR,13aS)-3a-(2-(2-(dimethylamino)acetamido)-2-methylpropanamido)-1-isopropyl-5a,5b,8,8,11a-pentamethyl-2-oxo-3,3a,4,5,5a,5b,6,7,7a,8,9,10,11,11a,11b,12,13,13a-octadecahydro-2H-cyclopenta[a]chrysen-9-yl)oxy)carbonyl)-2,2-dimethylcyclobutane-1-carboxylic acid] came in with a viability at 4 days, 0.01 µM of 94%; a viability at 4 days, 0.1 µM of 15%; a viability at 4 days, 1 µM of 8%. In data set [2], the AUC(0-t) is 186 µg·h/mL and the Cmax is 13900 ng/mL.

For `Cc1cccc(C(=O)NC(C)(C)C(=O)N[C@@]23CC[C@]4(C)[C@H](CC[C@@H]5[C@@]6(C)CC[C@H](OC(=O)[C@H]7C[C@@H](C(=O)O)C7(C)C)C(C)(C)[C@@H]6CC[C@]54C)C2=C(C(C)C)C(=O)C3)n1` [Example 60, (1R,3S)-3-((((3aR,5aR,5bR,7aR,9S,11aR,11bR,13aS)-1-isopropyl-5a,5b,8,8,11a-pentamethyl-3a-(2-methyl-2-(6-methylpicolinamido)propanamido)-2-oxo-3,3a,4,5,5a,5b,6,7,7a,8,9,10,11,11a,11b,12,13,13a-octadecahydro-2H-cyclopenta[a]chrysen-9-yl)oxy)carbonyl)-2,2-dimethylcyclobutane-1-carboxylic acid], in data set [1], the viability at 4 days, 0.01 µM came out at 77%; the viability at 4 days, 0.1 µM was 27%; the viability at 4 days, 1 µM was found to be 2%. Also, in data set [2], the AUC(0-t) was determined as 217 µg·h/mL and the Cmax came to 20200 ng/mL.

On to `Cc1ccc(C(=O)NC(C)(C)C(=O)N[C@@]23CC[C@]4(C)[C@H](CC[C@@H]5[C@@]6(C)CC[C@H](OC(=O)[C@H]7C[C@@H](C(=O)O)C7(C)C)C(C)(C)[C@@H]6CC[C@]54C)C2=C(C(C)C)C(=O)C3)cn1` [Example 61, (1R,3S)-3-((((3aR,5aR,5bR,7aR,9S,11aR,11bR,13aS)-1-isopropyl-5a,5b,8,8,11a-pentamethyl-3a-(2-methyl-2-(6-methylnicotinamido)propanamido)-2-oxo-3,3a,4,5,5a,5b,6,7,7a,8,9,10,11,11a,11b,12,13,13a-octadecahydro-2H-cyclopenta[a]chrysen-9-yl)oxy)carbonyl)-2,2-dimethylcyclobutane-1-carboxylic acid], for which, in data set [1], the viability at 4 days, 0.01 µM worked out at 88%; the viability at 4 days, 0.1 µM was 42%; the viability at 4 days, 1 µM stood at 2%. In addition, in data set [2], the AUC(0-t) was 615 µg·h/mL and the Cmax amounted to 45700 ng/mL.

For the compound `CCOC(=O)NC(C)(C)C(=O)N[C@@]12CC[C@]3(C)[C@H](CC[C@@H]4[C@@]5(C)CC[C@H](OC(=O)[C@H]6C[C@@H](C(=O)O)C6(C)C)C(C)(C)[C@@H]5CC[C@]43C)C1=C(C(C)C)C(=O)C2` [Example 64, (1R,3S)-3-((((3aR,5aR,5bR,7aR,9S,11aR,11bR,13aS)-3a-(2-((ethoxycarbonyl)amino)-2-methylpropanamido)-1-isopropyl-5a,5b. 8,8,11a-pentamethyl-2-oxo-3,3a,4,5,5a,5b,6,7,7a,8,9,10,11,11a,11b,12,13,13a-octadecahydro-2H-cyclopenta[a]chrysen-9-yl)oxy)carbonyl)-2,2-dimethylcyclobutane-1-carboxylic acid], in data set [1], the viability at 4 days, 0.01 µM came out at 26%; the viability at 4 days, 0.1 µM amounted to 2%; the viability at 4 days, 1 µM amounted to 1%. Moreover, in data set [2], the AUC(0-t) is 336 µg·h/mL and the Cmax stood at 27400 ng/mL.

In data set [1], `CC(C)C1=C2[C@H]3CC[C@@H]4[C@@]5(C)CC[C@H](OC(=O)[C@H]6C[C@@H](C(=O)O)C6(C)C)C(C)(C)[C@@H]5CC[C@@]4(C)[C@]3(C)CC[C@@]2(NC(=O)C(C)(C)NCc2ccccn2)CC1=O` [Example 67, (1R,3S)-3-((((3aR,5aR,5bR,7aR,9S,11aR,11bR,13aS)-1-isopropyl-5a,5b,8,8,11a-pentamethyl-3a-(2-methyl-2-((pyridin-2-ylmethyl)amino)propan amido)-2-oxo-3,3a,4,5,5a,5b,6,7,7a,8,9,10,11,11a,11b,12,13,13a-octadecahydro-2H-cyclopenta[a]chrysen-9-yl)oxy)carbonyl)-2,2-dimethylcyclobutane-1-carboxylic acid] had a viability at 4 days, 0.01 µM of 59%; a viability at 4 days, 0.1 µM of 21%; a viability at 4 days, 1 µM of 3%. Moreover, in data set [2], the AUC(0-t) came to 86.6 µg·h/mL and the Cmax stood at 24300 ng/mL.
